# Measurements taken from PubChem BioAssay AID1259407 (Chemical Carcinogenesis Research Information System (CCRIS), 2018).
# Active and inactive are the calls of the source. No rule for the calls is given here.
# Test system: CCRIS mutagenicity, Ames/micronucleus/aberration tests
# Assay: CCRIS mutagenicity studies
# [1] = Test System: AMES SALMONELLA TYPHIMURIUM, Strain/Indicator: TA100, Metabolic Activation: NONE, Method: PREINCUBATION
# [2] = Test System: AMES SALMONELLA TYPHIMURIUM, Strain/Indicator: TA100, Metabolic Activation: RAT, LIVER, S-9, AROCLOR 1254, Method: PREINCUBATION
# [3] = Test System: AMES SALMONELLA TYPHIMURIUM, Strain/Indicator: TA98, Metabolic Activation: NONE, Method: STANDARD PLATE
# [4] = Test System: AMES SALMONELLA TYPHIMURIUM, Strain/Indicator: TA100, Metabolic Activation: NONE, Method: STANDARD PLATE
# [5] = Test System: AMES SALMONELLA TYPHIMURIUM, Strain/Indicator: TA98, Metabolic Activation: RAT, LIVER, S-9, AROCLOR 1254, Method: STANDARD PLATE
# [6] = Test System: AMES SALMONELLA TYPHIMURIUM, Strain/Indicator: TA100, Metabolic Activation: RAT, LIVER, S-9, AROCLOR 1254, Method: STANDARD PLATE
structure (smiles),measurement,setting,value
C=C(Cl)C#N,mutagenic call,[1],inactive; negative
same,mutagenic call,[2],inactive; negative
C=C(C=O)CC,mutagenic call,[1],active; positive
same,mutagenic call,"Test System: AMES SALMONELLA TYPHIMURIUM, Strain/Indicator: TA100, Metabolic Activation: RAT LIVER S-9, AROCLOR 1254, Method: PREINCUBATION",active; positive
same,mutagenic call,[2],active; positive
O=[N+]([O-])c1c2c(cc3c1ccc1ccccc13)C=C[C@@H](O)[C@@H]2O,mutagenic call,[3],active; positive
same,mutagenic call,[4],inactive; negative
CC(=O)Nc1ccc(Oc2c(Cl)cc(Cl)cc2Cl)cc1,mutagenic call,[5],inactive; negative
same,mutagenic call,"Test System: AMES SALMONELLA TYPHIMURIUM, Strain/Indicator: TA98, Metabolic Activation: S-9, Method: STANDARD PLATE",inactive; negative
same,mutagenic call,[4],inactive; negative
same,mutagenic call,[6],active; positive
same,mutagenic call,"Test System: AMES SALMONELLA TYPHIMURIUM, Strain/Indicator: TA100, Metabolic Activation: RAT, LIVER, S-9, KANECLOR 500, Method: STANDARD PLATE",active; positive
same,mutagenic call,"Test System: AMES SALMONELLA TYPHIMURIUM, Strain/Indicator: TA100, Metabolic Activation: S-9, Method: STANDARD PLATE",active; positive
same,mutagenic call,"Test System: AMES SALMONELLA TYPHIMURIUM, Strain/Indicator: YG1021, Metabolic Activation: RAT, LIVER, S-9, AROCLOR 1254, Method: STANDARD PLATE",inactive; negative
same,mutagenic call,"Test System: AMES SALMONELLA TYPHIMURIUM, Strain/Indicator: YG1021, Metabolic Activation: S-9, Method: STANDARD PLATE",inactive; negative
same,mutagenic call,"Test System: AMES SALMONELLA TYPHIMURIUM, Strain/Indicator: YG1024, Metabolic Activation: RAT, LIVER, S-9, AROCLOR 1254, Method: STANDARD PLATE",active; positive
same,mutagenic call,"Test System: AMES SALMONELLA TYPHIMURIUM, Strain/Indicator: YG1024, Metabolic Activation: S-9, Method: STANDARD PLATE",active; positive
same,mutagenic call,"Test System: AMES SALMONELLA TYPHIMURIUM, Strain/Indicator: YG1026, Metabolic Activation: RAT, LIVER, S-9, AROCLOR 1254, Method: STANDARD PLATE",active; positive
same,mutagenic call,"Test System: AMES SALMONELLA TYPHIMURIUM, Strain/Indicator: YG1026, Metabolic Activation: S-9, Method: STANDARD PLATE",active; positive
same,mutagenic call,"Test System: AMES SALMONELLA TYPHIMURIUM, Strain/Indicator: YG1029, Metabolic Activation: RAT, LIVER, S-9, AROCLOR 1254, Method: STANDARD PLATE",active; positive
same,mutagenic call,"Test System: AMES SALMONELLA TYPHIMURIUM, Strain/Indicator: YG1029, Metabolic Activation: S-9, Method: STANDARD PLATE",active; positive
O=C(Cc1ccccc1)NC(Cc1ccc(Cl)cc1)C(=O)O (centres undefined),mutagenic call,"Test System: AMES SALMONELLA TYPHIMURIUM, Strain/Indicator: TA98, Metabolic Activation: NONE",inactive; negative
same,mutagenic call,"Test System: AMES SALMONELLA TYPHIMURIUM, Strain/Indicator: TA100, Metabolic Activation: NONE",active; positive
same,mutagenic call,"Test System: AMES SALMONELLA TYPHIMURIUM, Strain/Indicator: TA1535, Metabolic Activation: NONE",inactive; negative
same,mutagenic call,"Test System: AMES SALMONELLA TYPHIMURIUM, Strain/Indicator: TA1537, Metabolic Activation: NONE",inactive; negative
same,mutagenic call,"Test System: E. COLI, Strain/Indicator: AB2462 UVRA, Metabolic Activation: NONE, Method: SPOT TEST",inactive; negative
Cc1ccc(C(=O)n2ncc(Cl)c(Cl)c2=O)cc1,mutagenic call,[3],inactive; negative
same,mutagenic call,[5],inactive; negative
same,mutagenic call,[4],inactive; negative
same,mutagenic call,[6],inactive; negative
same,mutagenic call,"Test System: AMES SALMONELLA TYPHIMURIUM, Strain/Indicator: TA1535, Metabolic Activation: NONE, Method: STANDARD PLATE",inactive; negative
same,mutagenic call,"Test System: AMES SALMONELLA TYPHIMURIUM, Strain/Indicator: TA1535, Metabolic Activation: RAT, LIVER, S-9, AROCLOR 1254, Method: STANDARD PLATE",inactive; negative
same,mutagenic call,"Test System: AMES SALMONELLA TYPHIMURIUM, Strain/Indicator: TA1537, Metabolic Activation: NONE, Method: STANDARD PLATE",inactive; negative
same,mutagenic call,"Test System: AMES SALMONELLA TYPHIMURIUM, Strain/Indicator: TA1537, Metabolic Activation: RAT, LIVER, S-9, AROCLOR 1254, Method: STANDARD PLATE",inactive; negative
[O-][Cl+]O,mutagenic call,"End Point: IN VIVO MICRONUCLEUS, Test System: BONE MARROW POLYCHROMATIC ERYTHROCYTES, Species: MOUSE, Strain/Sex: DDY/MALE, Route: ORAL",inactive; negative; significant increase at 150 mg/kg
same,mutagenic call,"Test System: AMES SALMONELLA TYPHIMURIUM, Strain/Indicator: TA97, Metabolic Activation: NONE, Method: PREINCUBATION",inactive; negative
same,mutagenic call,"Test System: AMES SALMONELLA TYPHIMURIUM, Strain/Indicator: TA97, Metabolic Activation: RAT, LIVER, S-9, AROCLOR 1254, Method: PREINCUBATION",inactive; negative
same,mutagenic call,"Test System: AMES SALMONELLA TYPHIMURIUM, Strain/Indicator: TA102, Metabolic Activation: NONE, Method: PREINCUBATION",inactive; negative
same,mutagenic call,"Test System: AMES SALMONELLA TYPHIMURIUM, Strain/Indicator: TA102, Metabolic Activation: RAT, LIVER, S-9, AROCLOR 1254, Method: PREINCUBATION",inactive; negative
CC(Br)(CO)CBr (centres undefined),mutagenic call,[4],inactive; negative
C=C1C(=O)O[C@@H]2CCN3CC=C(COC(=O)[C@](C)(O)[C@H](C)[C@H]1C)[C@H]23,mutagenic call,"Test System: AMES SALMONELLA TYPHIMURIUM, Strain/Indicator: TA100, Metabolic Activation: RAT, LIVER, S-9, SODIUM PHENOBARBITAL AND BETA-NAPHTHOFLAVONE, Method: PREINCUBATION",inactive; negative
N=C(N)c1ccc2c(N)c(C(=N)N)[nH]c2c1,mutagenic call,[3],inactive; negative
same,mutagenic call,"Test System: AMES SALMONELLA TYPHIMURIUM, Strain/Indicator: TA98, Metabolic Activation: RAT, LIVER, S-9, PHENOBARBITAL, Method: STANDARD PLATE",inactive; negative
same,mutagenic call,[4],inactive; negative
same,mutagenic call,"Test System: AMES SALMONELLA TYPHIMURIUM, Strain/Indicator: TA100, Metabolic Activation: RAT, LIVER, S-9, PHENOBARBITAL, Method: STANDARD PLATE",inactive; negative
COc1ccccc1NC(=O)c1csc([N+](=O)[O-])c1,mutagenic call,[3],active; positive
same,mutagenic call,[4],active; positive
CNC[C@H](O)c1ccc(O)c(O)c1,mutagenic call,"Test System: AMES SALMONELLA TYPHIMURIUM, Strain/Indicator: TA98, Metabolic Activation: HAMSTER, LIVER, S-9, AROCLOR 1254 (10%), Method: PREINCUBATION",inactive; negative
same,mutagenic call,"Test System: AMES SALMONELLA TYPHIMURIUM, Strain/Indicator: TA98, Metabolic Activation: NONE, Method: PREINCUBATION",inactive; negative
same,mutagenic call,"Test System: AMES SALMONELLA TYPHIMURIUM, Strain/Indicator: TA98, Metabolic Activation: RAT, LIVER, S-9, AROCLOR 1254 (10%), Method: PREINCUBATION",inactive; negative
same,mutagenic call,"Test System: AMES SALMONELLA TYPHIMURIUM, Strain/Indicator: TA100, Metabolic Activation: HAMSTER, LIVER, S-9, AROCLOR 1254 (10%), Method: PREINCUBATION",inactive; negative
same,mutagenic call,[1],inactive; negative
same,mutagenic call,"Test System: AMES SALMONELLA TYPHIMURIUM, Strain/Indicator: TA100, Metabolic Activation: RAT, LIVER, S-9, AROCLOR 1254 (10%), Method: PREINCUBATION",inactive; negative
same,mutagenic call,"Test System: AMES SALMONELLA TYPHIMURIUM, Strain/Indicator: TA1535, Metabolic Activation: HAMSTER, LIVER, S-9, AROCLOR 1254 (10%), Method: PREINCUBATION",inactive; negative
same,mutagenic call,"Test System: AMES SALMONELLA TYPHIMURIUM, Strain/Indicator: TA1535, Metabolic Activation: NONE, Method: PREINCUBATION",inactive; negative
same,mutagenic call,"Test System: AMES SALMONELLA TYPHIMURIUM, Strain/Indicator: TA1535, Metabolic Activation: RAT, LIVER, S-9, AROCLOR 1254 (10%), Method: PREINCUBATION",inactive; negative
same,mutagenic call,"Test System: AMES SALMONELLA TYPHIMURIUM, Strain/Indicator: TA1537, Metabolic Activation: HAMSTER, LIVER, S-9, AROCLOR 1254 (10%), Method: PREINCUBATION",inactive; negative
same,mutagenic call,"Test System: AMES SALMONELLA TYPHIMURIUM, Strain/Indicator: TA1537, Metabolic Activation: NONE, Method: PREINCUBATION",inactive; negative
same,mutagenic call,"Test System: AMES SALMONELLA TYPHIMURIUM, Strain/Indicator: TA1537, Metabolic Activation: RAT, LIVER, S-9, AROCLOR 1254 (10%), Method: PREINCUBATION",inactive; negative
